The values below come from patent US20250025427A1, “MIXED AMIDE ESTER CONTAINING LIPIDS FOR USE IN LIPID NANOPARTICLES” (Acuitas Therapeutics, Inc., priority 2023, published 2025).

The subject of the assay is human IgG in mouse serum. The experiment in a line: Immunoglobulin G (IgG) mRNA in vivo evaluation using lipid nanoparticle compositions. More on the design: species or system mice. As to conditions: LNP with the cationic lipid, tail vein injection, μg IgG/mL serum 24 hours after administration; for Serum IgG (μg/mL) @ 0.3 mg/kg: 0.3 mg mRNA/kg; for Serum IgG (μg/mL) @ 1.0 mg/kg: 1.0 mg mRNA/kg. The protocol:
A lipid of Formula (I), DSPC, cholesterol and PEG-lipid of Formula (II) are solubilized in ethanol at a molar ratio of 50:10:38.5:1.5 or 47.5:10:40.7:1.8. Lipid nanoparticles (LNP) are prepared at a total lipid to mRNA weight ratio of approximately 10:1 to 40:1. Briefly, the mRNA is diluted to 0.2 mg/mL in 10 to 50 mM citrate buffer, pH 4 to 6 or 10 to 25 mM acetate buffer, pH 4 to 6. Syringe pumps are used to mix the ethanolic lipid solution with the mRNA aqueous solution at a ratio of about 1:5 to 1:3 (vol/vol) with total flow rates above 15 mL/min. The ethanol is then removed, and the external buffer replaced with PBS by dialysis. Finally, the lipid nanoparticles are filtered through a 0.2 µm pore sterile filter.
Studies are performed in 6-8-week-old CD-1/ICR mice (Charles River or Inotiv) according to guidelines established by an institutional animal care committee (ACC) and the Canadian Council on Animal Care (CCAC). Varying doses of mRNA-lipid nanoparticle are systemically administered by tail vein injection and animals euthanized at a specific time point (e.g., 24 hours) post-administration. The whole blood is collected, and the serum subsequentially separated by centrifuging the tubes of the whole blood at 2000×g for 10 minutes at 4° C. and stored at −80° C. until use for analysis.
For immunoglobulin G (IgG) ELISA (Life Diagnostics Human IgG ELISA kit), the serum samples are diluted at 100 to 20,000 folds with 1× diluent solution. 100 μL of diluted serum is dispensed into anti-human IgG coated 96-well plate in duplicate alongside human IgG standards and incubated in a plate shaker at 150 rpm at 25° C. for 45 minutes. The wells are washed 5 times with 1× wash solution using a plate washer (400 μL/well). 100 μL of HRP conjugate is added into each well and incubated in a plate shaker at the same condition above. The wells are washed 5 times again with 1× wash solution using a plate washer (400 μL/well). 100 μL of TMB reagent is added into each well and incubated in a plate shaker at the same condition above. The reaction is stopped by adding 100 μL of Stop solution to each well. The absorbance is read at 450 nm (A450) with a microplate reader. The amount of human IgG in mouse serum is determined by plotting A450 values for the assay standard against human IgG concentration.
Representative compounds of the disclosure shown in Table 2 were formulated using the following molar ratio: 50% cationic lipid/10% distearoylphosphatidylcholine (DSPC)/38.5% Cholesterol/1.5% PEG lipid 2-[2-(ω-methoxy(polyethyleneglycohooo)ethoxy]-N,N-ditetradecylacetamide) or 47.5% cationic lipid/10% DSPC/40.7% Cholesterol/1.8% PEG lipid. Relative activity was determined by measuring the amount of human IgG […]. The activity was compared at a dose of 1.0 or 0.3 mg mRNA/kg and expressed as ng luciferase/g liver measured 4 hours after administration, as described in Example 1 or as μg IgG/mL serum measured 24 hours after administration, as described in Example 2. Compound numbers in Table 2 refer to the compound numbers of Table 1.

Structures are written as SMILES.

Turning to `CCCCCCCCC(CCCCCC)COC(=O)CCCCCCCNC(=O)CCCCCCCCCN(C)CCCCCCCCCC(=O)NCCCCCCCC(=O)OCC(CCCCCC)CCCCCCCC` (centres unmarked) [Compound I-2, Bis(2-Hexyldecyl) 8,8′-((10,10′-(Methylazanediyl)Bis(Decanoyl))Bis(Azanediyl))Dioctanoate], the “Serum IgG (μg/mL) @ 0.3 mg/kg” value amounted to 70.7 ± 11.3 µg/mL and the “Serum IgG (μg/mL) @ 1.0 mg/kg” value was 369.6 ± 59.4 µg/mL. Turning to `CCCCCCCCC(CCCCCC)COC(=O)CCCCCCCC(=O)N(CCCCCC)CCCCCCN(C)CCCCCCN(CCCCCC)C(=O)CCCCCCCC(=O)OCC(CCCCCC)CCCCCCCC` (centres unmarked) [Compound I-5, Bis(2-Hexyldecyl) 9,9′-(((Methylazanediyl)Bis(Hexane-6,1-Diyl))Bis(Hexylazanediyl))Bis(9-Oxononanoate)], the “Serum IgG (μg/mL) @ 0.3 mg/kg” value amounted to 57.5 ± 8.4 µg/mL.

For `CCCCCCCCC(CCCCCC)COC(=O)CCCCCNC(=O)CCCCCCCN(C)CCCCCCCC(=O)N(CCCCCC)CCCCCC(=O)OCC(CCCCCC)CCCCCCCC` (centres unmarked) [Compound I-11, 2-Hexyldecyl 6-(8-((8-(Hexyl(6-((2-Hexyldecyl)Oxy)-6-Oxohexyl)Amino)-8-Oxooctyl)(Methyl)Amino)Octanamido)Hexanoate], the “Serum IgG (μg/mL) @ 0.3 mg/kg” value came to 35.6 ± 5.5 µg/mL. The same measure, in the same setting: then `CCCCCCCCC(CCCCCC)COC(=O)CCCCCN(CCCCCC)C(=O)CCCCCCCN(CCCCCCCC(=O)N(CCCCCC)CCCCCC(=O)OCC(CCCCCC)CCCCCCCC)[C@H]1CC[C@@H](O)CC1` (stereo partly drawn) [Compound I-12, Rel-Bis(2-Hexyldecyl) 6,6′-((8,8′-(((1R,4R)-4-Hydroxycyclohexyl)Azanediyl)Bis(Octanoyl))Bis(Hexylazanediyl))Dihexanoate], with 29.6 ± 12.7 µg/mL.

`CCCCCCCCC(CCCCCC)C(=O)OCCCCCCCCC(=O)N(CCCCCC)CCCCCCN(C)CCCCCCN(CCCCCC)C(=O)CCCCCCCCOC(=O)C(CCCCCC)CCCCCCCC` (centres unmarked) [Compound I-13, (((methylazanediyl)bis(hexane-6,1-diyl))bis(hexylazanediyl))bis(9-oxononane-9,1-diyl) bis(2-hexyldecanoate)]: the “Serum IgG (μg/mL) @ 0.3 mg/kg” value was determined as 11.3 ± 4.7 µg/mL. Still for that read-out and setting: the value for `CCCCCCCCC(CCCCCC)COC(=O)CCCCCCN(CCCCCC)C(=O)CCCCCCCN(C)CCCCCCCC(=O)N(CCCCCC)CCCCCCC(=O)OCC(CCCCCC)CCCCCCCC` (centres unmarked) [Compound I-14, Bis(2-Hexyldecyl) 7,7′-((8,8′-(Methylazanediyl)Bis(Octanoyl))Bis(Hexylazanediyl))Diheptanoate] was 33.4 ± 7.7 µg/mL.

Regarding `CCCCCCCCC(CCCCCC)COC(=O)CCCCN(CCCCCC)C(=O)CCCCCCCN(C)CCCCCCCC(=O)N(CCCCCC)CCCCC(=O)OCC(CCCCCC)CCCCCCCC` (centres unmarked) [Compound I-15, Bis(2-Hexyldecyl) 5,5′-((8,8′-(Methylazanediyl)Bis(Octanoyl))Bis(Hexylazanediyl))Dipentanoate], the “Serum IgG (μg/mL) @ 0.3 mg/kg” value amounted to 48.2 ± 12.7 µg/mL and the “Serum IgG (μg/mL) @ 1.0 mg/kg” value came to 135.0 ± 37.2 µg/mL. On to `CCCCCCCCC(CCCCCC)COC(=O)CCCCCCCN(CCCCCC)C(=O)CCCCCCN(C)CCCCCCC(=O)N(CCCCCC)CCCCCCCC(=O)OCC(CCCCCC)CCCCCCCC` (centres unmarked) [Compound I-16, Bis(2-Hexyldecyl) 8,8′-((7,7′-(Methylazanediyl)Bis(Heptanoyl))Bis(Hexylazanediyl))Dioctanoate], for which the “Serum IgG (μg/mL) @ 0.3 mg/kg” value worked out at 37.2 ± 9.7 µg/mL.

Turning to `CCCCCCCCC(CCCCCC)COC(=O)CCCCCCCCN(CCCCCC)C(=O)CCCCCN(C)CCCCCC(=O)N(CCCCCC)CCCCCCCCC(=O)OCC(CCCCCC)CCCCCCCC` (centres unmarked) [Compound I-17, Bis(2-Hexyldecyl) 9,9′-((6,6′-(Methylazanediyl)Bis(Hexanoyl))Bis(Hexylazanediyl))Dinonanoate], the “Serum IgG (μg/mL) @ 0.3 mg/kg” value amounted to 16.0 ± 2.6 µg/mL. `CCCCCCCCC(CCCCCC)COC(=O)CCCCCCCN(CCCCCC)C(=O)CCCCN(C)CCCCC(=O)N(CCCCCC)CCCCCCCC(=O)OCC(CCCCCC)CCCCCCCC` (centres unmarked) [Compound I-18, Bis(2-Hexyldecyl) 8,8′-((5,5′-(Methylazanediyl)Bis(Pentanoyl))Bis(Hexylazanediyl))Dioctanoate]: the “Serum IgG (μg/mL) @ 0.3 mg/kg” value came out at 8.9 ± 4.9 µg/mL and the “Serum IgG (μg/mL) @ 1.0 mg/kg” value came to 32.4 ± 4.6 µg/mL.

As to `CCCCCCCCC(CCCCCC)COC(=O)CCCCCN(CCCCCC)C(=O)CCCCN(C)CCCCC(=O)N(CCCCCC)CCCCCC(=O)OCC(CCCCCC)CCCCCCCC` (centres unmarked) [Compound I-19, Bis(2-Hexyldecyl) 6,6′-((5,5′-(Methylazanediyl)Bis(Pentanoyl))Bis(Hexylazanediyl))Dihexanoate], the “Serum IgG (μg/mL) @ 0.3 mg/kg” value is 12.3 ± 5.2 µg/mL. `CCCCCCCCC(CCCCCC)COC(=O)CCCCCCCCCN(CCCCCC)C(=O)CCCCCN(C)CCCCCC(=O)N(CCCCCC)CCCCCCCCCC(=O)OCC(CCCCCC)CCCCCCCC` (centres unmarked) [Compound I-22, Bis(2-Hexyldecyl) 10,10′-((6,6′-(Methylazanediyl)Bis(Hexanoyl))Bis(Hexylazanediyl))Bis(Decanoate)]: the “Serum IgG (μg/mL) @ 0.3 mg/kg” value is 11.9 ± 5.9 µg/mL. `CCCCCCCCC(CCCCCC)COC(=O)CCCCCN(CCCCCC)C(=O)CCCCCCN(C)CCCCCCC(=O)N(CCCCCC)CCCCCC(=O)OCC(CCCCCC)CCCCCCCC` (centres unmarked) [Compound I-24, Bis(2-Hexyldecyl) 6,6′-((7,7′-(Methylazanediyl)Bis(Heptanoyl))Bis(Hexylazanediyl))Dihexanoate]: the “Serum IgG (μg/mL) @ 0.3 mg/kg” value was 31.9 ± 6.4 µg/mL. `CCCCCCCCC(CCCCCC)COC(=O)CCCCCN(CCCCCC)C(=O)CCCCCCCN(C)CCCCCCCC(=O)N(CCCCCC)CCCCCC(=O)OCC(CCCCCC)CCCCCCCC` (centres unmarked) [Compound I-25, Bis(2-Hexyldecyl) 6,6′-((8,8′-(Methylazanediyl)Bis(Octanoyl))Bis(Hexylazanediyl))Dihexanoate]: the “Serum IgG (μg/mL) @ 0.3 mg/kg” value was found to be 55.3 ± 24.8 µg/mL and the “Serum IgG (μg/mL) @ 1.0 mg/kg” value was determined as 192.4 ± 106.8 µg/mL. `CCCCCCCCC(CCCCCC)COC(=O)CCCCCN(CCCCCC)C(=O)CCCCCN(C)CCCCCC(=O)N(CCCCCC)CCCCCC(=O)OCC(CCCCCC)CCCCCCCC` (centres unmarked) [Compound I-27, Bis(2-Hexyldecyl) 6,6′-((6,6′-(Methylazanediyl)Bis(Hexanoyl))Bis(Hexylazanediyl))Dihexanoate]: the “Serum IgG (μg/mL) @ 0.3 mg/kg” value stood at 15.6 ± 4.7 µg/mL.

On to `CCCCCCCCC(CCCCCC)COC(=O)CCCCCN(C(=O)CCCCCCCN(C)CCCCCCCC(=O)N(CCCCCC(=O)OCC(CCCCCC)CCCCCCCC)C(C)C)C(C)C` (centres unmarked) [Compound I-28, Bis(2-Hexyldecyl) 6,6′-((8,8′-(Methylazanediyl)Bis(Octanoyl))Bis(Isopropylazanediyl))Dihexanoate], for which the “Serum IgG (μg/mL) @ 0.3 mg/kg” value turned out to be 13.2 ± 4.3 µg/mL. The same measure, in the same setting: then `CCCCCCCCC(CCCCCC)COC(=O)CCN(CCCCCC)C(=O)CCCCCCCN(C)CCCCCCCC(=O)N(CCCCCC)CCC(=O)OCC(CCCCCC)CCCCCCCC` (centres unmarked) [Compound I-32, Bis(2-Hexyldecyl) 3,3′-((8,8′-(Methylazanediyl)Bis(Octanoyl))Bis(Hexylazanediyl))Dipropionate], with 70.8 ± 12.3 µg/mL; and `CCCCCCC(CCCC)COC(=O)CCCCCN(CCCCCC)C(=O)CCCCCCCN(C)CCCCCCCC(=O)N(CCCCCC)CCCCCC(=O)OCC(CCCC)CCCCCC` (centres unmarked) [Compound I-33, Bis(2-Butyloctyl) 6,6′-((8,8′-(Methylazanediyl)Bis(Octanoyl))Bis(Hexylazanediyl))Dihexanoate], with 75.8 ± 36.0 µg/mL; and `CCCCCCCCC(CCCCCC)C(=O)OCCCCCCN(CCCCCC)C(=O)CCCCCCCN(CCCCCCCC(=O)N(CCCCCC)CCCCCCOC(=O)C(CCCCCC)CCCCCCCC)CCN(C)C` (centres unmarked) [Compound I-34, ((8,8′-((2-(Dimethylamino)Ethyl)Azanediyl)Bis(Octanoyl))Bis(Hexylazanediyl))Bis(Hexane-6,1-Diyl) Bis(2-Hexyldecanoate)], with 5.0 ± 0.8 µg/mL.
